Assay results from patent US11731943B2, “Therapeutic compounds, compositions and methods of use thereof” (priority 2016, dated 2023).
Like-named read-outs stand apart in the source and are kept apart here.

Key:
[1] = target: isolated recombinant JAK2 kinase domain (Homo sapiens (Human), UniProt O60674); test: JAK2 enzyme assay (Caliper LabChip, Ki); type: biochemical
Description: (§1) JAK Enzyme Assays were carried out as follows:
The activity of the isolated recombinant JAK1 and JAK2 kinase domain was measured by monitoring phosphorylation of a peptide derived from JAK3 ([…] fluorescently labeled on the N-terminus with 5-carboxyfluorescein) using the Caliper LabChip® technology (Caliper Life Sciences, Hopkinton, Mass.). […] Reactions were incubated at 22° C. in 384-well polypropylene microtiter plates for 30 minutes and then stopped by addition of 25 μL of an EDTA containing solution (100 mM HEPES buffer (pH 7.2), 0.015% Brij-35, 150 mM EDTA), resulting in a final EDTA concentration of 50 mM. After termination of the kinase reaction, the proportion of phosphorylated product was determined as a fraction of total peptide substrate using the Caliper LabChip® 3000 according to the manufacturer's specifications.

[2] = tested on: JAK1-dependent STAT6 phosphorylation downstream of IL-13 stimulation in BEAS-2B human bronchial epithelial cells; test: JAK1 pathway assay in BEAS-2B cells (IL-13-pSTAT6, MSD); type: cell-based; settings: Homo sapiens, BEAS-2B, BEAS-2B cells, IL-13 stimulation; read-out: IL-13 p-STAT6 BEAS-2B IC50
Description: JAK1 Pathway Assay in Cell Lines was carried out as follows:
Inhibitor potency (EC50) was determined in cell-based assays designed to measure JAK1 dependent STAT phosphorylation.
In one assay approach, TF-1 human erythroleukemia cells obtained from the American Type Culture Collection (ATCC; Manassas, Va.) were used to measure JAK1-dependent STAT6 phosphorylation downstream of IL-13 stimulation. Prior to use in the assays, TF-1 cells were starved of GM-CSF overnight in OptiMEM medium (Life Technologies, Grand Island, N.Y.) supplemented with 0.5% charcoal/dextran stripped fetal bovine serum (FBS), 0.1 mM non-essential amino acids (NEAA), and 1 mM sodium pyruvate. The assays were run in 384-well plates in serum-free OptiMEM medium using 300,000 cells per well. In a second assay approach, BEAS-2B human bronchial epithelial cells obtained from ATCC were plated at 100,000 cells per well of a 96-well plate one day prior to the experiment. The BEAS-2B assay was run in complete growth medium (bronchial epithelial basal medium plus bulletkit; Lonza; Basel, Switzerland).
Test compounds were serially diluted 1:2 in DMSO and then diluted 1:50 in medium just before use. Diluted compounds were added to the cells, for a final DMSO concentration of 0.2%, and incubated for 30 min (for the TF-1 assay) or 1 hr (for the BEAS-2B assay) at 37° C. Then, cells were stimulated with human recombinant cytokine at their respective EC90 concentrations, as previously determined for each individual lot. Cells were stimulated with IL-13 (R&D Systems, Minneapolis, Minn.) for 15 min at 37° C. The TF-1 cell reactions were stopped by the direct addition of 10× lysis buffer (Cell Signaling Technologies, Danvers, Mass.), whereas the BEAS-2B cell incubations were halted by the removal of medium and addition of 1× lysis buffer. The resultant samples were frozen in the plates at −80° C. Compound mediated inhibition of STATE phosphorylation was measured in the cell lysates using MesoScale Discovery (MSD) technology (Gaithersburg, Md.).

[3] = target: isolated recombinant JAK1 kinase domain (Homo sapiens (Human), UniProt P23458); test: JAK1 enzyme assay (Caliper LabChip, Ki); type: biochemical
Description: as §1
The activity of the isolated recombinant JAK1 and JAK2 kinase domain was measured by monitoring phosphorylation of a peptide derived from JAK3 (Val-Ala-Leu-Val-Asp-Gly-Tyr-Phe-Arg-Leu-Thr-Thr, fluorescently labeled on the N-terminus with 5-carboxyfluorescein) using the Caliper LabChip® technology (Caliper Life Sciences, Hopkinton, Mass.). […] Reactions were incubated at 22° C. in 384-well polypropylene microtiter plates for 30 minutes and then stopped by addition of 25 μL of an EDTA containing solution (100 mM HEPES buffer (pH 7.2), 0.015% Brij-35, 150 mM EDTA), resulting in a final EDTA concentration of 50 mM. After termination of the kinase reaction, the proportion of phosphorylated product was determined as a fraction of total peptide substrate using the Caliper LabChip® 3000 according to the manufacturer's specifications. Ki values were then determined using the Morrison tight binding model (Morrison, J. F., Biochim. Biophys. Acta. 185:269-296 (1969); William, J. W. and Morrison, J. F., Meth. Enzymol., 63:437-467 (1979)) modified for ATP-competitive inhibition [Ki=Ki,app/(1+[ATP]/Km,app)].

Chain of isolated recombinant JAK1 kinase domain (P23458 875-1153): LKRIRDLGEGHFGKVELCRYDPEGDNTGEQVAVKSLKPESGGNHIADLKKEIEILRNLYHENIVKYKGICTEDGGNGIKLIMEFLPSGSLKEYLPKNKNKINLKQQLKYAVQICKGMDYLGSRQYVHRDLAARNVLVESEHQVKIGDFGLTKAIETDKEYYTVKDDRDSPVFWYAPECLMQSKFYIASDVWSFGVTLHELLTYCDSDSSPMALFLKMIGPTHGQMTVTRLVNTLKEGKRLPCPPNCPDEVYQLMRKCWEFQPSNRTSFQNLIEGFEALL
Chain of isolated recombinant JAK2 kinase domain (O60674 849-1124): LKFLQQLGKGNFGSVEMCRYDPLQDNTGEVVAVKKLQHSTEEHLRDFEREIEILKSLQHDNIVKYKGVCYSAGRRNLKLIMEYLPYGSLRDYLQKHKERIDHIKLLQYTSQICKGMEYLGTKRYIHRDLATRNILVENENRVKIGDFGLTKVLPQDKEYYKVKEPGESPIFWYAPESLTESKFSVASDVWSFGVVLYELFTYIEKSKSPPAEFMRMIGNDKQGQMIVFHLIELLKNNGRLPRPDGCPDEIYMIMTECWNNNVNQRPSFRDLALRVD

Compound	Ki [1] [nM]	IC50 [2] [nM]	Ki [3] [nM]	Ki ([3]; read-out: JAK1 Ki) [nM]
N#CC[C@]1(n2cc(C(N)=O)c(NC(=O)C3CC3)n2)CC[C@@H](NCC(F)(F)F)CC1 (single isomer, unassigned) [Example 1]	252	> 1000	> 562	
N#CC[C@]1(n2cc(C(N)=O)c(NC(=O)C3CC3)n2)CC[C@H](NCC(F)(F)F)CC1 (single isomer, unassigned) [Example 2]	6.1	373	1.2	
N#CC[C@]1(n2cc(C(N)=O)c(NC(=O)C3CC3)n2)CC[C@H](N2CC(C(F)(F)F)C2)CC1 (single isomer, unassigned) [Example 8]	11	194		1.7
CCOC1(C(F)(F)F)CN([C@H]2CC[C@@](CC#N)(n3cc(C(N)=O)c(NC(=O)C4CC4)n3)CC2)C1 (single isomer, unassigned) [Example 9]	24.3	436		2.2
CCOC1(C(F)(F)F)CN([C@H]2CC[C@](CC#N)(n3cc(C(N)=O)c(NC(=O)C4CC4)n3)CC2)C1 (single isomer, unassigned) [Example 10]	> 319	> 1000		> 562
COC1(C(F)(F)F)CN([C@H]2CC[C@](CC#N)(n3cc(C(N)=O)c(NC(=O)C4CC4)n3)CC2)C1 [Example 132]	> 319			217
CC(C)OC1(C(F)(F)F)CN([C@H]2CC[C@](CC#N)(n3cc(C(N)=O)c(NC(=O)C4CC4)n3)CC2)C1 [Example 136]	> 319			463
N#CC[C@]1(n2cc(C(N)=O)c(NC(=O)C3CC3)n2)CC[C@H](N2CC(O)(C(F)(F)F)C2)CC1 [Example 138, 1-[1-(cyanomethyl)-4-[3-hydroxy-3-(trifluoromethyl)azetidin-1-yl]cyclohexyl]-3-(cyclopropanecarbonylamino) pyrazole-4-carboxamide]	> 319			> 562
CN(C)C(=O)c1ccccc1-c1ccc(CN2CCC(CC#N)(n3cc(C(N)=O)c(NC(=O)C4CC4)n3)CC2)cc1 [Example 144, 1-[4-(cyanomethyl)-1-[[4-[2-(dimethylcarbamoyl)phenyl]phenyl]methyl]-4-piperidyl]-3-(cyclopropanecarbonylamino) pyrazole-4-carboxamide]	63.5			8.8
N#CCC1(n2cc(C(N)=O)c(NC(=O)C3CC3)n2)CCN(Cc2ccc(-c3cccc(C(F)(F)F)c3)cc2)CC1 [Example 150, 1-[4-(cyanomethyl)-1-[[4-[3-(trifluoromethyl)phenyl]phenyl]methyl]-4-piperidyl]-3-(cyclopropanecarbonylamino) pyrazole-4-carboxamide]	208			15.9
N#CCC1(n2cc(C(N)=O)c(NC(=O)C3CC3)n2)CCN(Cc2ccc(-c3cccnc3)cc2)CC1 [Example 158]	39.4			8
N#CCC1(n2cc(C(N)=O)c(NC(=O)C3CC3)n2)CCN(Cc2ccc(-c3ccncc3)cc2)CC1 [Example 159, 1-[4-(cyanomethyl)-1-[[4-(4-pyridyl)phenyl]methyl]-4-piperidyl]-3-(cyclopropanecarbonylamino) pyrazole-4-carboxamide]	101			19
N#CC[C@]1(n2cc(C(N)=O)c(NC(=O)C3CC3)n2)CCN(Cc2ccccc2)C[C@H]1F [Example 165]	211			27.1
N#CCC1(n2cc(C(N)=O)c(NC(=O)C3CC3)n2)CCN(C(=O)C2CC(F)(F)C2)CC1 [Example 168, 1-[4-(cyanomethyl)-1-(3,3-difluorocyclobutanecarbonyl)-4-piperidyl]-3-(cyclopropanecarbonylamino) pyrazole-4-carboxamide]	93.3			7.5
N#CCC1(n2cc(C(N)=O)c(NC(=O)C3CC3)n2)CCN(C(=O)CC(F)(F)F)CC1 [Example 170, 1-[4-(cyanomethyl)-1-(3,3,3-trifluoropropanoyl)-4-piperidyl]-3-(cyclopropanecarbonylamino) pyrazole-4-carboxamide]	70.9			6.7
CC(F)(F)C(=O)N1CCC(CC#N)(n2cc(C(N)=O)c(NC(=O)C3CC3)n2)CC1 [Example 171, 1-[4-(cyanomethyl)-1-(2,2-difluoropropanoyl)-4-piperidyl]-3-(cyclopropanecarbonylamino) pyrazole-4-carboxamide]	30.3			6.6
N#CC[C@]1(n2cc(C(N)=O)c(NC(=O)C3CC3)n2)CC[C@H](NC2CC(F)(F)C2)CC1 [Example 172, 1-[1-(cyanomethyl)-4-[(3,3-difluorocyclobutyl)amino]cyclohexyl]-3-(cyclopropanecarbonylamino) pyrazole-4-carboxamide]	> 319		> 562	
N#CC[C@]1(n2cc(C(N)=O)c(NC(=O)C3CC3)n2)CC[C@@H](NC2CC(F)(F)C2)CC1 [Example 173, 1-[1-(cyanomethyl)-4-[(3,3-difluorocyclobutyl)amino]cyclohexyl]-3-(cyclopropanecarbonylamino) pyrazole-4-carboxamide]	71.3		8.7	
N#CC[C@]1(n2cc(C(N)=O)c(NC(=O)C3CC3)n2)CC[C@H](NC2CCC(F)(F)CC2)CC1 [Example 174, 1-[1-(cyanomethyl)-4-[(4,4-difluorocyclohexyl)amino]cyclohexyl]-3-(cyclopropanecarbonylamino) pyrazole-4-carboxamide]	> 319		> 562	
N#CC[C@]1(n2cc(C(N)=O)c(NC(=O)C3CC3)n2)CC[C@@H](NC2CCC(F)(F)CC2)CC1 [Example 175, 1-[1-(cyanomethyl)-4-[(4,4-difluorocyclohexyl)amino]cyclohexyl]-3-(cyclopropanecarbonylamino) pyrazole-4-carboxamide]	321		14.1	
N#CC[C@]1(n2cc(C(N)=O)c(NC(=O)C3CC3)n2)CC[C@H](N2CC(F)(F)C2)CC1 [Example 179, 1-[1-(cyanomethyl)-4-(3,3-difluoroazetidin-1-yl)cyclohexyl]-3-(cyclopropanecarbonylamino) pyrazole-4-carboxamide]	> 319		> 562	
N#CC[C@]1(n2cc(C(N)=O)c(NC(=O)C3CC3)n2)CC[C@H](N2CC(F)C2)CC1 [Example 181, 1-[1-(cyanomethyl)-4-(3-fluoroazetidin-1-yl)cyclohexyl]-3-(cyclopropanecarbonylamino) pyrazole-4-carboxamide]	> 319		> 562	
N#CCC1(n2cc(C(N)=O)c(NC(=O)C3CC3)n2)CCN(CCc2ccccc2)CC1 [Example 183, 1-[4-(cyanomethyl)-1-(2-phenylethyl)-4-piperidyl]-3-(cyclopropanecarbonylamino) pyrazole-4-carboxamide]	> 319			88.3
N#CCC1(n2cc(C(N)=O)c(NC(=O)C3CC3)n2)CCN(Cc2ccc(-c3ccccn3)cc2)CC1 [Example 185, 1-[4-(cyanomethyl)-1-[[4-(2-pyridyl)phenyl]methyl]-4-piperidyl]-3-(cyclopropanecarbonylamino) pyrazole-4-carboxamide]		209		2.3
